Data on two substances can be found in patent US8563473B2, “Aqueous herbicidal concentrates of auxinic carboxylic acids with reduced eye irritancy” (Dow AgroSciences, LLC., priority 2010, dated 2013).

Series [1] relates to susceptible plants. As to conditions: concentrate diluted in water, applied postemergently; disclosed in WO 2008/106107 A1; cited from earlier work.
The nature of series [2]: Cold temperature stability / storage of aqueous concentrates. In kind it is physicochemical. The following applies: […] salt solution ([…] acid equivalent) stored at −10° C. for 14 days.

With choline salt of 2,4-D [2,4-D choline], the Weed control entry in series [1] is listed as “good weed control”. Take triclopyr choline salt: the Crystallization on storage entry in series [2] is “did not show any crystallization”.
